# Experimental data: patent US8158575B2, “Agent for the prevention and treatment of sexually transmitted diseases-I” (priority 2001, dated 2012)
# What was measured:
# HeLa CD4 LTR […]-gal cells = test: XTT toxicity on sister plate of the fusion assay; format: cell-based
# Description: The fusion assay assesses the ability of compounds to block cell-to-cell fusion mediated by HIV-1 Env and CD4 expressed on separate cells. This assay is sensitive to inhibitors of both the gp120/CD4 interaction and inhibitors of the X4 coreceptor. First, 5×10^3 HeLa CD4 LTR […]-gal cells are placed in microtiter wells and incubated overnight. The following day the media is removed and the HeLa CD4 LTR […]-gal cells are incubated for 1 h at 37° C. in fresh media with test compound. Following the incubation 5×10^3 HL2/3 cells are added and the incubation continued for 40 to 48 h. At 40 to 48 h […]-galactosidase enzyme expression is detected by chemiluminescence (Tropix Gal-screen™, Tropix, Bedford, Mass.). Compound toxicity is monitored on a sister plate using XTT dye reduction.
# Lactobacillus jensenii = test: Lactobacillus growth sensitivity assay; format: cell-based; conditions: 24 h growth, OD 490 nm
# Description: (§1) Lactobacillus crispatus and Lactobacillus jensenii were obtained from the American Type Tissue Culture Collection and grown in Lactobacilli MRS broth (Difco, Fisher Scientific, Pittsburgh, Pa.). This medium allows efficient growth of the Lactobacilli under anaerobic conditions. Bacillus stocks are produced and frozen in 15% glycerol at −80° C. for use in the sensitivity assay. To assess the effect of compounds on L. crispatus and L. jensenii growth, 10 ml of MRS media is inoculated with a stab from the glycerol bacterial stock. The culture is placed in a Gas Pak CO2 bag and incubated for 24 h at 37° C. The next day the lactobacillus cultures are diluted to an OD of 0.06 at a wavelength of 670 nm. Compounds are diluted and placed into a 96 well flat bottomed plate and the Lactobacillus sp. added. Commercially available Penicillin/Streptomycin solution at a high test concentration of 1.25 U/ml and 1.25 µg/ml, respectively, are used as the positive control. The plates are again incubated for 24 h at 37° C. in a Gas Pak CO2 bag and bacterial growth determined by measurement of optical density at 490 nm in a molecular devices plate reader. All determinations are performed with 6½ log dilutions from a high test concentration in triplicate.
# Lactobacillus crispatus = test: Lactobacillus growth sensitivity assay; format: cell-based; conditions: 24 h growth, OD 490 nm
# Description: as §1
# IIIB strain of HIV = format: cell-based, HIV-1; conditions: HeLa CD4 LTR […]-gal cells
# Description: At 24 h media is removed and compound in media placed on the cells and incubated for 15 min at 37° C.
# [1] = system: viral strains of Herpes virus-2 resistant to modified nucleoside based antiviral agents; conditions: cell tests
substance,measurement,setting,value
"BHAlyslys2lys4lys8lys16[NH—CO—CH2)O-3,6-Naphthyl-(SO3Na)2]32 [SPL-7013]",Fusion Assay TC50,HeLa CD4 LTR […]-gal cells,>100 µg/mL
same,L jensenii (ID50),Lactobacillus jensenii,>100 µg/mL
same,L. crispatus (ID50),Lactobacillus crispatus,>100 µg/mL
same,Attachment Assay IC50,IIIB strain of HIV,0.57 µg/ml
same,Activity against resistant Herpes virus-2 strains (in words),[1],shown activity
